This note sets out measurements from PubChem BioAssay AID602347 (The Scripps Research Institute Molecular Screening Center, 2012).

The target in this assay is Monoacylglycerol lipase ABHD6 (Mus musculus) (UniProt Q8R2Y0). The experiment in a line: in vivo brain ABHD6 target engagement – gel-based competitive ABPP, fluorescence, mouse brain, in vivo study for DAGLb inhibitor project, late-stage follow-up (AID 602347). Conditions: in vivo dosing, active compounds read high, dose or concentration not given here.
Monoacylglycerol lipase ABHD6 (Mus musculus), sequence (Q8R2Y0 whole entry, looked up): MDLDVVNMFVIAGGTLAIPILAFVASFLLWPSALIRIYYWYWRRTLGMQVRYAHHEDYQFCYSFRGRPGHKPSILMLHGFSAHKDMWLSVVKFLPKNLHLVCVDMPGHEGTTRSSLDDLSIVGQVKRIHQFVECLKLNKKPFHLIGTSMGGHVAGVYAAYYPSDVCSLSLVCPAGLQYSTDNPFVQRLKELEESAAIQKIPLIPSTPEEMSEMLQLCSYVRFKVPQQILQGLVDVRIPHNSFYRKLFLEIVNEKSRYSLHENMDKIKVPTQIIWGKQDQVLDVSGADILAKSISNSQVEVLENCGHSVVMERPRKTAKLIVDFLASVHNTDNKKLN

Usually inhibition stands for the change of the read-out against control, counted positive when it falls.

Turning to `COc1ccccc1-c1ccc(-c2cn(C(=O)N3CCCCC3Cc3ccccc3)nn2)cc1` (stereo unspecified), the inhibition (with FP-Rh probe) was 100% and the inhibition (with HT-01 probe) is 100%.

`O=C(N1CCCCC1Cc1ccccc1)n1cc(-c2ccc(-c3ccccc3C(F)(F)F)cc2)nn1` (stereo unspecified): the inhibition was 95% (with FP-Rh probe) and 95% (with HT-01 probe).

As for `O=C(N1CCCCC1Cc1ccccc1)n1cc(-c2ccc(-c3ccccc3)cc2)nn1` (stereo unspecified), the inhibition is 100% (with FP-Rh probe) and 100% (with HT-01 probe).
